Test results taken from patent US11130756B2, “[1,2,4]Triazolo[4,3-A]pyridinyl substituted indole compounds” (BRISTOL-MYERS SQUIBB COMPANY, priority 2017, dated 2021).
pIC50: −log10 of the molar value.

Legend:
Type in all cases: cell-based
human TLR8 = target: T1, human TLR8 (Homo sapiens, UniProt Q9NR97); experiment: TLR8 inhibition reporter assay (HEK-Blue, SEAP); conditions: HEK-Blue cells overexpressing human TLR8, R848 15.9 μM, 22 hour incubation
T1 construct: host or cells: HEK-Blue cells
T1 sequence (Q9NR97 27-1041): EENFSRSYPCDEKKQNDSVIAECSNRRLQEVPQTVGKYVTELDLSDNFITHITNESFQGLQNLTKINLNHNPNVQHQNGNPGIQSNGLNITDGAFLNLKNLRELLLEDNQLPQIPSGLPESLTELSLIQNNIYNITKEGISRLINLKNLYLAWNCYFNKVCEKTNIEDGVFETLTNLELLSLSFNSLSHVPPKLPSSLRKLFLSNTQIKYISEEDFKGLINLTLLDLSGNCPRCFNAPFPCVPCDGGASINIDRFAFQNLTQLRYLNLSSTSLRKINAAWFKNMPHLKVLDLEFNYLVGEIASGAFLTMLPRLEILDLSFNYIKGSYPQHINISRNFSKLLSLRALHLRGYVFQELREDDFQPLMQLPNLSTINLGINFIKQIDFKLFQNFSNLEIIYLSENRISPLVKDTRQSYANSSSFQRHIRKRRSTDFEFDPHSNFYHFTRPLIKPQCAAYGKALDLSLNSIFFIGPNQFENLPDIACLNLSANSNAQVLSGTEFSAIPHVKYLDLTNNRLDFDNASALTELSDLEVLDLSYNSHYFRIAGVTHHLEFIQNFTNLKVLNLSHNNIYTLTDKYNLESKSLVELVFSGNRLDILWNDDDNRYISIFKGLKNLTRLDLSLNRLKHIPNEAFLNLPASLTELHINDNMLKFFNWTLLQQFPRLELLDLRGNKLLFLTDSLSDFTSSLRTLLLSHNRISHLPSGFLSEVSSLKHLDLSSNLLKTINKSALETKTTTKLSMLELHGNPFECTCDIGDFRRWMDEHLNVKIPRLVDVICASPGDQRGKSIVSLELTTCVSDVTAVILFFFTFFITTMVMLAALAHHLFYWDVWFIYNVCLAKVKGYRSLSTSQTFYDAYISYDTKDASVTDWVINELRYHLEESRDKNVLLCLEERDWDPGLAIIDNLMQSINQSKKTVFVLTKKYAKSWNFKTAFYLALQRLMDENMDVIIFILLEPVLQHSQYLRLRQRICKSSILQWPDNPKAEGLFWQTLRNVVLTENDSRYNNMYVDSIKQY
Summary of the method: (§1)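 Compound treatment: 30 min, RT, 0.05 nM–50 μM final. Agonist: TLR7 gardiquimod 7.5 μM; TLR8 R848 15.9 μM; TLR9 ODN2006 5 nM. Incubation 22 h, 37 °C, 5% CO2. Readout SEAP, HEK-Blue Detection.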

human TLR9 = target: T2, human TLR9 (Homo sapiens, UniProt Q9NR96); experiment: TLR9 inhibition reporter assay (HEK-Blue, SEAP); conditions: HEK-Blue cells overexpressing human TLR9, ODN2006 5 nM, 22 hour incubation
T2 construct: host or cells: HEK-Blue cells
T2 sequence (Q9NR96 26-1032): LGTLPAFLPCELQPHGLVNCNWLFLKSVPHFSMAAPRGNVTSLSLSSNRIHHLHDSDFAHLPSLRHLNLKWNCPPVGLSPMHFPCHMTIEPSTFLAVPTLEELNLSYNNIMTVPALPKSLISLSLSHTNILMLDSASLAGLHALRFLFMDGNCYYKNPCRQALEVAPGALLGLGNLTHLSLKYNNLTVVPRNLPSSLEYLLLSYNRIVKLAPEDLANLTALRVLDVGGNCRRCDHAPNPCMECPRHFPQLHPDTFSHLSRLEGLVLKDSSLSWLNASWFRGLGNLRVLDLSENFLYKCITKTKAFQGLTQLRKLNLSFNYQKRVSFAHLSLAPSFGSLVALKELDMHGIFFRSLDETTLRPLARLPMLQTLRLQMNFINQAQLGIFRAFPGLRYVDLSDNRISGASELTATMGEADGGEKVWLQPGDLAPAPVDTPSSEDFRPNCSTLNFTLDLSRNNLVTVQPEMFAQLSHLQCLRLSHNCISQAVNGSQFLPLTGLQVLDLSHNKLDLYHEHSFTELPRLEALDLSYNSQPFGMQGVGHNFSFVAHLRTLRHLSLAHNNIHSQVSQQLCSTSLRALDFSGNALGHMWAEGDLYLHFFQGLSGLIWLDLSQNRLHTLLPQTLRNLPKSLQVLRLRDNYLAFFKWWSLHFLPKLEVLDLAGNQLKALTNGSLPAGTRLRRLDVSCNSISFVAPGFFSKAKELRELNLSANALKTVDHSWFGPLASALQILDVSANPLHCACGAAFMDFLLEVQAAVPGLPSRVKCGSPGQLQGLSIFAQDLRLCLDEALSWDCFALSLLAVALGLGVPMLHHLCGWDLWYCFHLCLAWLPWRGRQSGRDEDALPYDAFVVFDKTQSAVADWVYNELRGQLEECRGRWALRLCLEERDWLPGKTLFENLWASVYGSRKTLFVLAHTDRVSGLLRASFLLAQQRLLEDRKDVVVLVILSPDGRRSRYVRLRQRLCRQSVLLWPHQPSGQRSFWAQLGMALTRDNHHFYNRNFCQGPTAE
Summary of the method: as §1

human TLR7 = target: T3, human TLR7 (Homo sapiens, UniProt Q9NYK1); experiment: TLR7 inhibition reporter assay (HEK-Blue, SEAP); conditions: HEK-Blue cells overexpressing human TLR7, gardiquimod 7.5 μM, 22 hour incubation
T3 construct: host or cells: HEK-Blue cells
T3 sequence (Q9NYK1 27-1049): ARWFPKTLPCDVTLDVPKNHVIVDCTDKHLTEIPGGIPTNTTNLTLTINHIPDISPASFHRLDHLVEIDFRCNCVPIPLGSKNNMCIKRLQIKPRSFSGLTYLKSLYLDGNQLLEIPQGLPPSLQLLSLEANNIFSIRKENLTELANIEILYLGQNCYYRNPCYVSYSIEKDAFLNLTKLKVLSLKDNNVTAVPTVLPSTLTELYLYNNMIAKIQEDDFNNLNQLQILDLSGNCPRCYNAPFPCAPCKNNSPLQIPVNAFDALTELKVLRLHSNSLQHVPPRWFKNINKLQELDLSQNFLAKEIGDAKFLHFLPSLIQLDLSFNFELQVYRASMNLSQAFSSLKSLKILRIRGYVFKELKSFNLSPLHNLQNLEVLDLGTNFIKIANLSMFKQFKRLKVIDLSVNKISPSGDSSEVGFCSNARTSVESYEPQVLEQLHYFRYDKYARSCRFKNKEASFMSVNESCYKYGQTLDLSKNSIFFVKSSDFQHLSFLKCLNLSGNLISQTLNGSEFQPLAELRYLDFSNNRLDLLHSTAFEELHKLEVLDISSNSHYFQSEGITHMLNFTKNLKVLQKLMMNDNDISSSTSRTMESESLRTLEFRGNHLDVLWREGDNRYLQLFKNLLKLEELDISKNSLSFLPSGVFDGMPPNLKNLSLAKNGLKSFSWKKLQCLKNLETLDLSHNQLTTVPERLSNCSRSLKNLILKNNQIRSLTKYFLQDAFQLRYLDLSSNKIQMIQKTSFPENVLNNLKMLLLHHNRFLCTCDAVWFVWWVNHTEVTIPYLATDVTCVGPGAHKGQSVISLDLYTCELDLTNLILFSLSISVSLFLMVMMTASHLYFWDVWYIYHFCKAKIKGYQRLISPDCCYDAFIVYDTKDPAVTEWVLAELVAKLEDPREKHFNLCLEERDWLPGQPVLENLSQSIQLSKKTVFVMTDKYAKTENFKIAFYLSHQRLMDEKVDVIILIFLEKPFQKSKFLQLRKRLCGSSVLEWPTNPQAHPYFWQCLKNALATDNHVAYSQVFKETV
Summary of the method: as §1

SMILES	pIC50 (human TLR8)	pIC50 (human TLR9)	pIC50 (human TLR7)
CNC(=O)CN1CCC(c2ccc3[nH]c(-c4ccc5nncn5c4)c(C(C)C)c3c2)CC1 [Example 13, 2-(4-(2-([1,2,4]triazolo[4,3-a]pyridin-6-yl)-3-isopropyl-1H-indol-5-yl)piperidin-1-yl)-N-methylacetamide]	7.01	5.96	8.17
Cc1c(-c2[nH]c3ccc(C4CCN(CCCC(F)(F)F)CC4)cc3c2C(C)C)cn2cnnc2c1Cl [Example 48, 8-chloro-6-(3-isopropyl-5-(1-(4,4,4-trifluorobutyl)piperidin-4-yl)-1H-indol-2-yl)-7-methyl-[1,2,4]triazolo[4,3-a]pyridine]	7.87	5.59	8.72
Cc1c(-c2[nH]c3ccc(C4CCN(C5CCOCC5)CC4)cc3c2C(C)C)cn2cnnc2c1C [Example 78, 6-(3-isopropyl-5-(1-(tetrahydro-2H-pyran-4-yl)piperidin-4-yl)-1H-indol-2-yl)-7,8-dimethyl-[1,2,4]triazolo[4,3-a]pyridine]	8.34	5.75	8.89
Cc1c(-c2[nH]c3ccc(C4CCN(CC5(C)COC5)CC4)cc3c2C(C)C)cn2cnnc2c1Cl [Example 80, 8-chloro-6-(3-isopropyl-5-(1-((3-methyloxetan-3-yl)methyl)piperidin-4-yl)-1H-indol-2-yl)-7-methyl-[1,2,4]triazolo[4,3-a)pyridine]	8.24	5.34	8.64
Cc1cc(-c2[nH]c3ccc(C4CCN(C5COC5)CC4)cc3c2C(C)C)cn2cnnc12 [Example 63, 6-(3-isopropyl-5-(1-(oxetan-3-yl)piperidin-4-yl)-1H-indol-2-yl)-8-methyl-[1,2,4]triazolo[4,3-a]pyridine]	8.12	4.96	8.77
Cc1cc(-c2[nH]c3ccc(C4CCN(C5COC5)CC4)cc3c2C(C)C)c(C)n2cnnc12 [Example 76, 6-(3-isopropyl-5-(1-(oxetan-3-yl)piperidin-4-yl)-1H-indol-2-yl)-5,8-dimethyl-[1,2,4]triazolo[4,3-a]pyridine]	7.88	4.79	6.98
Cc1nnc2ccc(-c3[nH]c4ccc(C5CCN(C6COC6)CC5)cc4c3C(C)C)cn12 [Example 67, 6-(3-isopropyl-5-(1-(oxetan-3-yl)piperidin-4-yl)-1H-indol-2-yl)-3-methyl-[1,2,4]triazolo[4,3-a]pyridine]	7.78	4.99	7.22
Cc1c(-c2[nH]c3ccc(C4CCN(C5COC5)CC4)cc3c2C(C)C)cn2cnnc2c1C [Example 75, 6-(3-isopropyl-5-(1-(oxetan-3-yl)piperidin-4-yl)-1H-indol-2-yl)-7,8-dimethyl-[1,2,4]triazolo[4,3-a]pyridine]	7.66	4.62	8.48
COc1cc(-c2[nH]c3ccc(C4CCN(CCCC(F)(F)F)CC4)cc3c2C(C)C)cn2cnnc12 [Example 55, 6-(3-isopropyl-5-(1-(4,4,4-trifluorobutyl)piperidin-4-yl)-1H-indol-2-yl)-8-methoxy-[1,2,4]triazolo[4,3-a] pyridine]	7.97	5.96	9.05
Cc1c(-c2[nH]c3ccc(C4CCN(CCN5CCOC5=O)CC4)cc3c2C(C)C)cn2cnnc2c1C [Example 56, 3-(2-(4-(2-(7,8-dimethyl-[1,2,4]triazolo[4,3-a]pyridin-6-yl)-3-isopropyl-1H-indol-5-yl)piperidin-1-yl)ethyl)oxazolidin-2-one]	8.10	6.71	9.30
Cc1c(-c2[nH]c3ccc(C4CC(C)N(CC5(C)COC5)C(C)C4)cc3c2C(C)C)cn2cnnc2c1C (single isomer, unassigned) [Example 114, 6-(5-(2,6-dimethyl-1-((3-methyloxetan-3-yl)methyl)piperidin-4-yl)-3-isopropyl-1H-indol-2-yl)-7,8-dimethyl-[1,2,4]triazolo[4,3-a]pyridine]	6.65	5.14	7.86
Cc1cc(-c2[nH]c3ccc(C4CCN(Cc5ncn(C)n5)CC4)cc3c2C(C)C)c(C)n2cnnc12 [Example 40, 6-(3-isopropyl-5-(1-((1-methyl-1H-1,2,4-triazol-3-yl)methyl)piperidin-4-yl)-1H-indol-2-yl)-5,8-dimethyl-[1,2,4]triazolo[4,3-a]pyridine]	8.35	5.10	6.98
Cc1cc2nncn2cc1-c1[nH]c2ccc(C3CCN(C(=O)CN(C)C)CC3)cc2c1C(C)C [Example 107, 2-(dimethylamino)-1-(4-(3-isopropyl-2-(7-methyl-[1,2,4]triazolo[4,3-a]pyridin-6-yl)-1H-indol-5-yl)piperidin-1-yl)ethan-1-one]	6.23	6.04	7.39
